Measurements from ChEMBL document CHEMBL4043165, “Synthesis, estrogen receptor binding affinity and molecular docking of pyrimidine-piperazine-chromene and -quinoline conjugates” (Bioorg Med Chem Lett, 2017).
pIC50: −log10 of the molar value.

Legend:
Type in all cases: cell-based
[1] = Modulation activity at ER in human MCF7 cells assessed as reduction in cell viability after 48 hrs by MTT assay; settings: MCF7, 48 h
HEK-293T [2] = test: Cytotoxicity against HEK293T cells assessed as reduction in cell viability at <50 uM after 48 hrs by MTT assay; settings: human
HEK-293T [3] = test: Cytotoxicity against HEK293T cells assessed as reduction in cell viability after 48 hrs by MTT assay; settings: Homo sapiens
HEK-293T [4] = test: Cytotoxicity against HEK293T cells assessed as reduction in cell viability up to 50 uM after 48 hrs by MTT assay; settings: human

Row | Structure (SMILES) | pIC50 [1] | Activity (HEK-293T [2]) | pIC50 (HEK-293T [3]) | Activity (HEK-293T [4])
1 | Cc1nc(Oc2ccc3c(c2)OC(N)=C(C#N)C3c2ccc(F)cc2)cc(N2CCN(CCO)CC2)n1 (stereo unspecified) | 3.78 | Toxic | 4.28 | –
2 | COc1ccc(C2C(C#N)=C(N)Oc3cc(Oc4cc(N5CCN(CCO)CC5)nc(C)n4)ccc32)cc1 (stereo unspecified) | 3.98 | Toxic | 4.26 | –
3 | COc1cccc(C2C(C#N)=C(N)Nc3cc(Oc4cc(N5CCN(CCO)CC5)nc(C)n4)ccc32)c1 (stereo unspecified) | 3.78 | Toxic | 4.41 | –
4 | Cc1nc(Oc2ccc3c(c2)OC(N)=C(C#N)C3c2ccccc2Cl)cc(N2CCN(CCO)CC2)n1 (stereo unspecified) | 3.92 | Toxic | 4.10 | –
5 | Cc1nc(Oc2ccc3c(c2)OC(N)=C(C#N)C3c2ccc(Cl)cc2)cc(N2CCN(CCO)CC2)n1 (stereo unspecified) | 4.14 | Toxic | 4.74 | –
6 | Cc1nc(Oc2ccc3c(c2)NC(N)=C(C#N)C3c2ccc(F)cc2)cc(N2CCN(CCO)CC2)n1 (stereo unspecified) | 4.32 | Toxic | 4.14 | –
7 | COc1ccc(C2C(C#N)=C(N)Nc3cc(Oc4cc(N5CCN(CCO)CC5)nc(C)n4)ccc32)cc1 (stereo unspecified) | 4.92 | Toxic | 4.21 | –
8 | Cc1nc(Oc2ccc3c(c2)NC(N)=C(C#N)C3c2ccccc2)cc(N2CCN(CCO)CC2)n1 (stereo unspecified) | 4.19 | – | 3.85 | Non-Toxic
9 | Cc1nc(Oc2ccc3c(c2)NC(N)=C(C#N)C3c2ccc(Br)cc2)cc(N2CCN(CCO)CC2)n1 (stereo unspecified) | 3.71 | Toxic | 4.21 | –
10 | Cc1nc(Oc2ccc3c(c2)OC(N)=C(C#N)C3c2ccc([N+](=O)[O-])cc2)cc(N2CCN(CCO)CC2)n1 (stereo unspecified) | 4.52 | – | 3.98 | Non-Toxic
11 | Cc1nc(Oc2ccc3c(c2)OC(N)=C(C#N)C3c2ccccc2C)cc(N2CCN(CCO)CC2)n1 (stereo unspecified) | 4.21 | Toxic | 4.25 | –
12 | Cc1nc(Oc2ccc3c(c2)NC(N)=C(C#N)C3c2ccccc2Cl)cc(N2CCN(CCO)CC2)n1 (stereo unspecified) | 3.72 | Toxic | 4.15 | –
13 | Cc1ccc(C2C(C#N)=C(N)Oc3cc(Oc4cc(N5CCN(CCO)CC5)nc(C)n4)ccc32)cc1 (stereo unspecified) | 4.80 | – | < 3.70 | Non-Toxic
14 | Cc1nc(Oc2ccc3c(c2)NC(N)=C(C#N)C3c2c(Cl)cccc2Cl)cc(N2CCN(CCO)CC2)n1 (stereo unspecified) | 3.99 | Toxic | 4.21 | –
15 | Cc1nc(Oc2ccc3c(c2)OC(N)=C(C#N)C3c2ccccc2)cc(N2CCN(CCO)CC2)n1 (stereo unspecified) | 4.04 | – | < 3.70 | Non-Toxic
16 | Cc1ccc(C2C(C#N)=C(N)Nc3cc(Oc4cc(N5CCN(CCO)CC5)nc(C)n4)ccc32)cc1 (stereo unspecified) | 4.32 | – | 3.85 | Non-Toxic
17 | Cc1nc(Oc2ccc3c(c2)OC(N)=C(C#N)C3c2ccc(Br)cc2)cc(N2CCN(CCO)CC2)n1 (stereo unspecified) | 4.04 | Toxic | 4.72 | –
18 | Cc1nc(Oc2ccc3c(c2)NC(N)=C(C#N)C3c2ccccc2C)cc(N2CCN(CCO)CC2)n1 (stereo unspecified) | 3.70 | Toxic | 4.24 | –
19 | Cc1nc(Oc2ccc3c(c2)NC(N)=C(C#N)C3c2ccc(Cl)cc2)cc(N2CCN(CCO)CC2)n1 (stereo unspecified) | 3.77 | Toxic | 4.02 | –
20 | Cc1nc(Oc2ccc3c(c2)OC(N)=C(C#N)C3c2c(Cl)cccc2Cl)cc(N2CCN(CCO)CC2)n1 (stereo unspecified) | 3.87 | Toxic | 4.29 | –
21 | COc1cc(/C=C/C(=O)CC(=O)/C=C/c2ccc(O)c(OC)c2)ccc1O [CURCUMIN] | – | – | < 3.40 | –
